Experimental data as given in the supplement of paper PMC10307832.

Legend:
Experiment in all cases: relative viability (nuclei count vs DMSO), 5 days (fraction); higher = more cells survive
GW-2580 + Foretinib = compound: COC1=CC=C(C=C1)COC2=C(C=C(C=C2)CC3=CN=C(N=C3N)N)OC [GW-2580] + COc1cc2c(Oc3ccc(NC(=O)C4(C(=O)Nc5ccc(F)cc5)CC4)cc3F)ccnc2cc1OCCCN1CCOCC1 [Foretinib] (partner 0.25 µM)
Procedure, shortened: (§1)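 Five library-drug doses in √10 steps were combined with a fixed anchor-drug dose, or a single drug was given alone, by pin tool to lung cancer cell lines in 1536-well plates the day after seeding. Nuclei were stained and counted after 5 days. Relative viability is the nuclei count in treated wells over that in vehicle wells, taken as the median of duplicate plates.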

Fedratinib + Alpelisib = compound: Cc1cnc(Nc2ccc(OCCN3CCCC3)cc2)nc1Nc1cccc(S(=O)(=O)NC(C)(C)C)c1 [Fedratinib] + Cc1nc(NC(=O)N2CCC[C@H]2C(N)=O)sc1-c1ccnc(C(C)(C)C(F)(F)F)c1 [Alpelisib] (partner 2 µM)
Procedure, shortened: as §1

GW-2580 + Lapatinib = compound: COC1=CC=C(C=C1)COC2=C(C=C(C=C2)CC3=CN=C(N=C3N)N)OC [GW-2580] + CS(=O)(=O)CCNCc1ccc(-c2ccc3ncnc(Nc4ccc(OCc5cccc(F)c5)c(Cl)c4)c3c2)o1 [Lapatinib] (partner 2 µM)
Procedure, shortened: as §1

GW-2580 + Linsitinib = compound: COC1=CC=C(C=C1)COC2=C(C=C(C=C2)CC3=CN=C(N=C3N)N)OC [GW-2580] + C[C@]1(O)C[C@@H](c2nc(-c3ccc4ccc(-c5ccccc5)nc4c3)c3c(N)nccn32)C1 [Linsitinib] (partner 1 µM)
Procedure, shortened: as §1

GW-2580 + Tozasertib = compound: COC1=CC=C(C=C1)COC2=C(C=C(C=C2)CC3=CN=C(N=C3N)N)OC [GW-2580] + Cc1cc(Nc2cc(N3CCN(C)CC3)nc(Sc3ccc(NC(=O)C4CC4)cc3)n2)n[nH]1 [Tozasertib] (partner 0.1 µM)
Procedure, shortened: as §1

## UMC-11
GW-2580 + Foretinib; first compound 0.08 µM
  relative viability: 1.06
GW-2580 + Foretinib; first compound 0.8 µM
  relative viability: 1.04
GW-2580 + Foretinib; first compound 2.53 µM
  relative viability: 1.1
GW-2580 + Foretinib; first compound 8 µM
  relative viability: 1.23
Fedratinib + Alpelisib; first compound 0.1 µM
  relative viability: 0.985
Fedratinib + Alpelisib; first compound 0.3162 µM
  relative viability: 0.876
Fedratinib + Alpelisib; first compound 1 µM
  relative viability: 0.95
GW-2580 + Lapatinib; first compound 0.08 µM
  relative viability: 1.26
GW-2580 + Lapatinib; first compound 0.8 µM
  relative viability: 1.11
GW-2580 + Lapatinib; first compound 2.53 µM
  relative viability: 0.88
GW-2580 + Lapatinib; first compound 8 µM
  relative viability: 1.15
GW-2580 + Linsitinib; first compound 0.08 µM
  relative viability: 1.02
GW-2580 + Linsitinib; first compound 0.8 µM
  relative viability: 1.15
GW-2580 + Linsitinib; first compound 2.53 µM
  relative viability: 0.998
GW-2580 + Linsitinib; first compound 8 µM
  relative viability: 1.02
GW-2580 + Tozasertib; first compound 0.08 µM
  relative viability: 0.206
GW-2580 + Tozasertib; first compound 0.8 µM
  relative viability: 0.284
GW-2580 + Tozasertib; first compound 2.53 µM
  relative viability: 0.198
GW-2580 + Tozasertib; first compound 8 µM
  relative viability: 0.197
